The record followed here is patent US7087661B1, “Safe and effective biofilm inhibitory compounds and health-related uses thereof” (Cernofina, LLC, priority 1998, dated 2006).

Values joined by “and” are separate entries in the source; they are usually repeats but may differ in a detail not shown here. Equal values may be shown once. Where a name gives a salt, the structure may show the parent alone.

For data set [1], the system named is polyclonal antibodies specific for zosteric acid. Description: Preliminary testing of anti-zosteric acid polyclonal antibodies for cross reactivity. In kind it is binding. An excerpt:
To investigate the mechanism behind the AF activity of sulfate esters, polyclonal antibodies specific for the sulfate ester zosteric acid were generated (BAbCo, Berkeley, Calif.). […] These antibodies were then used to investigate whether the sulfate ester AF agent zosteric acid directly binds fouling organisms.

Another data set concerns Oceanosprillum. Description: Oceanosprillum adhesion test on glass slides. Type of data set: cell-based. The following applies: 5 mM in artificial seawater, 6-hour period. On the procedure:
Oceanosprillum adhesion test Each test consisted of a control set (with no sulfate esters) and sample sets containing the test molecules. The first test group consisted of a control sample set, a zosteric acid (5 mM) sample set, and an octyl sulfate (5 mM) sample set. The second test group consisted of a control sample set, a zosteric acid (5 mM) sample set, and a methyl sulfate (5 mM) sample set. Sample sets consisted of five 50 mL sterile centrifuge tubes, with each tube containing a glass microscope slide, 50 ml of artificial seawater (ASTM—American Society for testing and materials) with the dissolved sulfate ester, inoculated with an Oceanosprillum culture at 1×10^6 cells/mL. Sample sets were incubated at 23 C, with shaking so that the surface of the slides were horizontal. Over a 6-hour period, individual tubes were taken from the sample sets and tested for microbial adhesion.
(§1) Determination of bacterial adhesion. Samples were removed from the shaker and 1 mL of 50× acridine orange stain (0.5 g/L acridine powder in water) was added to the tube. The stain was allowed to react for 4 minutes. The slides were then removed and fitted with a long cover slip and immediately counted with an epifluorescent microscope fitted with a 100× (oil) objective lens on the under side of the slide. The size of the counting field was 10×10 μm. A total of 20 counts per slide were performed and averaged to yield the number of cells per μm^2, which was in turn converted to cells per mm^2. Error was assigned at 10% which is the standard accepted error for direct counting of bacterial cells.

In another data set the test system is Alteromonas atlantica. Description: Alteromonas atlantica adhesion tests on glass slides. The settings on record: for Alteromonas atlantica adhesion relative to controls: 5 mM dissolved in modified ASTM seawater. Type of data set: cell-based. How it is done: Alteromonas atlantica adhesion tests. The tests consisted of a control sample set, a zosteric acid (5 mM) sample set, an octyl sulfate (5 mM) sample set, and a methyl sulfate (5 mM) set. A sample set consisted of six 60 mL sterile centrifuge tubes. Each tube contained a glass microscope slide and 50 mL of modified ASTM seawater (American Society for Testing and Materials (1986) D1141-86, ASTM, Philadelphia, Pa.) with dissolved agent, inoculated with Alteromonas atlantica culture to an initial cell density of 1×10^6 cells/mL. The modified seawater consisted of normal ASTM seawater ingredients, however the carbon source glycerol, was only 1000th the normal strength, […], and was void of an amino acid source (casamino acids), in order to allow enough carbon for attachment, but not for significant cell growth.
as §1

In another data set the test system is equine erythrocytes. Description: Red blood cell agglutination assays. The settings on record: for concentrations producing erythrocyte agglutination: washed equine erythrocytes, 0.005 to 5.0 mg/mL tested. Type of data set: cell-based. On the procedure:
Red Blood Cell agglutination assays. Washed equine erythrocytes suspended in 1 mg/mL sodium citrate were placed in microtiter plates designed with wells containing hemispherical bottoms. Negative controls (no zosteric acid) were diluted in isotonic saline solution. Zosteric acid treated cells were diluted with saline containing zosteric acid at eight concentrations ranging from 0.005 to 5.0 mg/mL. Positive controls were exposed to the same range of high molecular weight heparin sulfate concentrations.

The test system of data set [2] is clot formation (prothrombin clotting time). As to the kind of experiment: Prothrombin clotting time assays. The settings on record: human serum. In kind it is biochemical. On the procedure:
Clotting assays. Clotting time assays were performed using commercial kits (Sigma Chemical Co.) for prothrombin clotting time. Serum was harvested from 30 mL of whole human blood obtained by venous puncture using centrifugation to remove blood cells. Zosteric acid and high MW heparin were added to separate aliquots of the serum, producing concentrations from 0 to 5.0 mg/mL. Clotting times were determined for each concentration in duplicate according to the protocols provided with the kit.

The test system of data set [3] is sea urchin egg fertilization (sperm-egg fusion). Description: Sea urchin fertilization assays. In kind it is cell-based. On the procedure: A simple sea urchin assay was used to detect and quantitate the ability of sulfate esters to block sperm-egg fusion. Sea urchin sperm was added to freshly collected eggs in the presence and absence of increasing amounts of the sulfate ester zosteric acid, and the eggs were subsequently scored for successful fertilization. Fertilization assays. Healthy sea urchins were induced to spawn by injection with 0.5 M KCL solution. Freshly collected eggs were gently washed and resuspended in filtered sea water (FSW, pH 8.2) and aliquotted into separate tubes for fertilization assays. Zosteric acid was added to each tube from a concentrated stock dissolved in FSW (pH 8.2), along with additional FSW to ensure a constant volume in each tube. Equal amounts of sperm were added to each tube and percent fertilization was determined by direct microscopic counting. Eggs with elevated fertilization membranes were scored as fertilized. Assays were performed at sperm-limiting concentrations that allowed 95–99% fertilization in the absence of zosteric acid.

For another data set, the system named is Aureobasidium pullulans. As to the kind of experiment: Fungal attachment and growth assay on glass slides. In kind it is cell-based, Aureobasidium pullulans (ATCC 34261). How it is done: Aureobasidium pullulans (ATCC 34261) was grown on potato-dextrose agar and harvested according to ASTM G-21-90 protocols (American Society for Testing and Materials (1986) […]-86, ASTM, Philadelphia, Pa.). The resulting spore suspension was used to inoculate liquid culture tubes containing 35 mL of growth medium (nutrient salts with 5 mM sucrose) and 15 mM zosteric acid. Zosteric acid-free medium was prepared as a control. A sterile microscope slide was added to each tube, the tubes were sealed and placed on a rotary shaker table at room temperature. One tube was harvested each day by removing the slide and counting the number of attached spores by direct microscopic counts, as described above.

Data set [4] relates to Shewanella putrefaciens cell surface. As to the kind of experiment: Cell surface binding assay (immuno-gold staining, electron microscopy). The settings on record: cultures grown with 16 mM zosteric acid. On the procedure: The marine bacterium Shewanella putrefaciens were grown in cultures containing zosteric acid and were subsequently examined for bound zosteric acid using immuno-gold staining with the antibody described above.
Cell Surface Binding Assays. The marine bacterium Shewanella putrefaciens was grown in marine broth in the presence of 16 mM zosteric acid. Dense log phase cells were harvest after 5 hours growth, and preserved in 0.5× Kamofsky's fixative (2% formaldehyde, 2.5% gluturaldehyde, 0.05 M sodium cacodylate, 0.25 M sucrose, pH 7.4) for 2 hours, and then transferred to a cacodylate buffer (0.05 M sodium cacodylate, pH 7.4) for storage. Cells were prepared for electron microscopic examination using immuno-gold staining techniques (Harlow, E. and Laine, D., Antibodies, A Laboratory Manual, Cold Spring Harbor Laboratory, 359–421; Roth et al., J. Histochem. Cytochem. 26: 1074–1081 (1978)). The primary antibody used in this study was an anti-zosteric acid polyclonal antibody (BAbCo, Richmond, Calif.).

The next data set deals with Shewanella putrefaciens. As to the kind of experiment: Bacterial agglutination assays (growth and agglutination in liquid culture). Type of data set: cell-based. On the procedure:
To further investigate the role of sulfate esters in agglutination, the ability of sulfate esters to facilitate the agglutination of bacterial cells was investigated. Log-phase cultures grown in the presence of zosteric acid were monitored spectrophotometrically (OD600) for growth, and for agglutination in the presence of increasing amounts of zosteric acid. Bacterial agglutination assays. Log-phase cultures of Shewanella putrefaciens were grown in complete seawater medium containing zosteric acid at a range of concentrations up to 20 mM. Cultures were counted for viable colony forming units at eight hours.

The test system of data set [5] is agglutination of sea urchin eggs by purified bindin. Description: Sea urchin egg agglutination assays with purified bindin. Type of data set: cell-based. How it is done: Sea urchin egg agglutination assays. Freshly spawned eggs were suspended in acidic seawater (pH 5) for 5 minutes to remove the outer jelly coat, and then washed 5 times in normal FSW (pH 8.2). Eggs were then transferred into plastic petri dished containing a range of zosteric acid concentrations and incubated for 15 minutes. Purified bindin (D. Epel, Stanford University) was added to the eggs at concentrations ranging from 1.2 to 12 μg/mL. The mixtures were gently agitated on a rotary shaker for 5 minutes and visually examined for agglutination. Bovine serum albumen (BSA) was used in separate assays to control for nonspecific agglutination of the dejellied eggs.

Data set [6] deals with natural marine algal biofilms. Description: Marine algal biofilm development on RTV-11 silicone coating in running raw seawater. The settings on record: 25% (wt/wt) in RTV-11 silicone coated on glass slides; 26 days in running seawater. In kind it is cell-based, marine algae. An excerpt: A 30% (w/v) solution of octyl sulfate in water (Stepan Chemical Co.) was evaporated to dryness under a stream of room temperature air, to recover pure octyl sulfate (FIG. 1). The dry octyl sulfate was incorporated into RTV-11 silicone polymer at a loading of 25% (wt/wt) (RTV-11 silicone, catalyst and primer obtained from General Electric). The mixture was applied to three glass slides previously primed with silicone primer, and allowed to cure to dryness. Three primed glass slides coated with pure RTV-11 served as agent-free controls. After complete drying, the absorption properties of each slide were measured using a Shimadzu UV-2101 spectrophotometer fitted with an integrating sphere. Slides were then placed in a tank of running raw seawater and allowed to incubate outdoors in natural sunlight for 26 days. Water temperature was nominally 15 C. Spectrophotometric determination of biofilm accumulation was measured on each slide periodically. Relative algal biomass was calculated as the ratio of absorption at 680 nm, contributed by chlorophyll a, to that at 750 nm, a wavelength not absorbed by chlorophyll, to correct for differences in turbidity and scattering properties of the different slides.

`O=C(O)C=Cc1ccccc1` [cinnamic acid]: the “cross reactivity with antibodies specific for zosteric acid” value in data set [1] was “no cross reactivity”.
On to `COS(=O)(=O)O` [methyl sulfate], for which the “Oceanosprillum adhesion (bacterial attachment) relative to control” value in the data set with Oceanosprillum is “roughly a two fold reduction”. Also, the Alteromonas atlantica adhesion in the data set with Alteromonas atlantica (5 mM, constant after 120 minutes, controls greater than 700,000) is on record as 150,000 cells/mm^2.
heparin [reference compound]: the “concentrations producing erythrocyte agglutination” value in the data set with equine erythrocytes was “greater than 0.75 mg/mL”. Further, the “concentrations effective at preventing clot formation” value in [2] is “below 0.1 mg/ml”. The reduction of fertilization result in data set [3] (1 mg/mL) is “approximately 50%”.
For the compound `O=C(O)/C=C/c1ccc(O)cc1` [coumaric acid, reference compound], in data set [3] (1 mg/mL), the “effect on egg fertilization” value was “no effect”.
For the compound `CCC(C)(C)c1ccc(OS(=O)(=O)Cl)cc1` [4-PPCS, 4 t-Pentyl Phenyl Chlorosulfate], the “impact on sperm motility” value in data set [3] (contact with 4-PPCS) is reported as “no adverse impacts”. In [3] (exceeding the binding capacity of 4-PPCS in solution), the “inhibition when more sperm were added to the medium” value is given as “could be washed out”. Moreover, the “effectiveness in blocking sea urchin fertilization” value in data set [3] (in the range of 1–10 mM) is roughly 100%.
As for `COc1cc(/C=C/C(=O)O)ccc1O` [ferulic acid], in data set [1], the “cross reactivity with antibodies specific for zosteric acid” value is reported as “no cross reactivity”.
As for `O=C(O)/C=C/c1ccc(OS(=O)(=O)O)cc1` [zosteric acid], the “Oceanosprillum adhesion (bacterial attachment) relative to control” value in the data set on Oceanosprillum was “roughly a two fold reduction”. The “Alteromonas atlantica adhesion relative to controls” value in the data set with Alteromonas atlantica is “significant reduction”. The “filamentous growth or mycelial development of colonies” value in the data set with Aureobasidium pullulans (15 mM in liquid culture) was “no evidence of filamentous growth or mycelial development”. In the data set on Aureobasidium pullulans (15 mM, after 5 days incubation, control more than 600), the “germinated fungal colonies on slides” value is recorded as “less than 20 germinated fungal colonies/mm^2”. For the same compound, in the data set with Aureobasidium pullulans (15 mM, clouding of tubes after Day 1), the “growth of fungal spores in the medium” value is given as “observed to grow”. For the same compound, the “zosteric acid bound to bacterial cell surface (immuno-gold staining)” value in [4] is “bound to the surface of the bacteria”. For the same compound, in the data set with Shewanella putrefaciens (at eight hours, among the different cultures), the “counts of viable colony forming units” value is given as “no difference in cell density”. In the data set with Shewanella putrefaciens (concentration dependent, up to 20 mM), the “agglutination of S. putrefaciens” value is “significant agglutination”. In the data set on Shewanella putrefaciens (concentrations up to 16 mM), the “growth of S. putrefaciens in liquid culture” value is given as “did not inhibit the growth”. Moreover, in the data set on equine erythrocytes (from erythrocyte agglutination concentrations), the “reactivity with cell surface glycoproteins and polysaccharides relative to high molecular weight heparin” value was “eight times more reactive”. Besides, in the data set with equine erythrocytes, the “concentrations producing erythrocyte agglutination” value is listed as no less than 0.175 mg/mL. In [2], the “concentrations effective at preventing clot formation” value is given as “exceeding 10 mg/ml”. Besides, the “concentration range effective in blocking sea urchin fertilization” value in [3] was 1 to 10 mM. In data set [3] (1 mg/mL), this compound gave a fertilization remaining of 21%. The “effectiveness at inhibiting fertilization relative to heparin” value in data set [3] (equal mass concentrations, 1 mg/mL) was “at least twice as effective”. Further, in data set [3] (sea urchin eggs, sperm-limiting concentrations), the “concentrations that completely blocked fertilization” value was “higher than 0.5 mg/mL and > 1.5 mM”. For the same compound, the “effect on sperm viability or motility” value in data set [3] (sea urchin sperm exposed to zosteric acid) is “no detected effect”. In data set [3] (unfertilized eggs of highest treatment washed and re-exposed to fresh sperm), the “reversibility of fertilization inhibition” value is “reversible”. Further, the Agglutination entry in data set [5] ([ZA] 0.015 mg mL^−1), in [5] ([ZA] 0.03 mg mL^−1), in [5] ([ZA] 0.075 mg mL^−1), in [5] ([ZA] 0.15 mg mL^−1), in data set [5] ([ZA] 0.30 mg mL^−1) and in data set [5] ([ZA] 0.75 mg mL^−1) was “Yes” each time. In addition, the Agglutination entry in data set [5] ([ZA] 1.5 mg mL^−1) and in data set [5] ([ZA] 3 mg mL^−1) was “No” each time.
As to `CCCCCCCCOS(=O)(=O)[O-].[Na+]` [octyl sulfate], the “algal biofilm development relative to controls lacking octyl sulfate” value in [6] is given as “five fold less”. Moreover, in the data set on Oceanosprillum, the “Oceanosprillum adhesion (bacterial attachment) relative to control” value was “to an even greater extent than zosteric acid”. Besides, the “Alteromonas atlantica adhesion relative to controls” value with Alteromonas atlantica is “slightly higher inhibitory activity than zosteric acid”.
